“And” between values parts separate entries of the source, which are not always exact repeats. Equal values may be shown once. Read-outs that look alike come from different tables or passages of the source. Ends that are not written are not given here.
What was measured:
MHV [1] = tested on: MHV
hHgs 1-390 protein [2] = molecular target: T1, hHgs 1-390 protein (Homo sapiens, UniProt O14964)
hHgs 1-390 protein [3] = molecular target: T1, hHgs 1-390 protein; assay: biochemical
M protein = assay: BFA treatment and washout: ER export of M protein in 17Cl-1 cells; format: cell-based; conditions: for Colocalization of M protein with ERGIC53 / Colocalization of M protein with SEC61B: individual replicate values, Figure S5A; for ERGIC53 (colocalization value, Figure S5B) / SEC61B (colocalization value, Figure S5B): individual replicates
Protocol: 70–80% confluent 17Cl-1 cells were treated with 5 µg/mL final BFA (Catalog no #HY-
16592; MCE) for 40 min at 37°C. BFA was washed out by three brief rinses in PBS and
cells were then incubated at 37°C for 5 h before fixation with 4% PFA.

SARS-CoV-2 Omicron BA.5 = format: in vivo, K18-hACE2 C57BL/6 mice
MHV [4] = format: cell-based, mouse hepatitis virus (MHV); conditions: RTB 0 uM
MHV [5] = tested on: MHV; design: species or system C57BL/6JGpt mice; conditions: in vivo
in vitro [6] = conditions: mouse, 17Cl-1 cells, cell viability, Figure S7E
in vitro [7] = conditions: Vero E6 cells, cell viability, Figure S7F
in vitro [8] = conditions: human, Calu-3 cells, cell viability, Figure S7G

T1 sequence (O14964 1-390): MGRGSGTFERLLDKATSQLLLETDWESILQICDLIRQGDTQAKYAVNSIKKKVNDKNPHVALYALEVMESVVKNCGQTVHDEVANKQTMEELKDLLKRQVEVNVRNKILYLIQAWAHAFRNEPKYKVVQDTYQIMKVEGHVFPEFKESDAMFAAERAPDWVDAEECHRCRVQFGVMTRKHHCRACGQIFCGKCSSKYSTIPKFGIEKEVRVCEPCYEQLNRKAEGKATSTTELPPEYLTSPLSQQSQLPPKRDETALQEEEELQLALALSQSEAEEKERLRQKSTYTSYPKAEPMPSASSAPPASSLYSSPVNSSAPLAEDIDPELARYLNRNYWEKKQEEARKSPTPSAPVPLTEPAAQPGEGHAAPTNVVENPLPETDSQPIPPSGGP

COc1ccc(N)cn1 [5-amino-2 methoxypyridine]
cell viability, Figures S9A, B, D-F (17Cl-1 cells; concentration 0.01): 100
cell viability, Figures S9A, B, D-F (17Cl-1 cells; concentration 0.03): 100
cell viability, Figures S9A, B, D-F (17Cl-1 cells; concentration 0.1): 100
cell viability, Figures S9A, B, D-F (17Cl-1 cells; concentration 0.3): 100
cell viability, Figures S9A, B, D-F (17Cl-1 cells; concentration 1): 100
cell viability, Figures S9A, B, D-F (17Cl-1 cells; concentration 3): 100
cell viability, Figures S9A, B, D-F (17Cl-1 cells; concentration 10): 100
cell viability, Figures S9A, B, D-F (17Cl-1 cells; concentration 25): 103.896
viability of infected cells (rescue of cytopathic effect), Figures S9G-L (MHV [1]; concentration 10): 50.187 and 47.1573 and 49.7662
viability of infected cells (rescue of cytopathic effect), Figures S9G-L (MHV [1]; concentration 30): 52.4593 and 51.6738 and 47.1012
viability of infected cells (rescue of cytopathic effect), Figures S9G-L (MHV [1]; concentration 100): 53.2448 and 47.1573 and 49.2052
viability of infected cells (rescue of cytopathic effect), Figures S9G-L (MHV [1]; concentration 300): 49.4576 and 49.4296 and 47.5781
viability of infected cells (rescue of cytopathic effect), Figures S9G-L (MHV [1]; concentration 1000): 50.0187 and 48.055 and 47.0451
viability of infected cells (rescue of cytopathic effect), Figures S9G-L (MHV [1]; concentration 3000): 52.3191 and 51.9824 and 49.121
viability of infected cells (rescue of cytopathic effect), Figures S9G-L (MHV [1]; concentration 10000): 58.7432 and 53.4412 and 53.7217
viability of infected cells (rescue of cytopathic effect), Figures S9G-L (MHV [1]; concentration 25000): 59.3884 and 60.7069 and 59.0799

COc1ccc(N)cn1 [5-amino-2-methoxypyridine]
Polarization (hHgs 1-390 protein [2]; 0.00610352 uM): 137
Polarization (hHgs 1-390 protein [2]; 0.0244141 uM): 154 and 132
Polarization (hHgs 1-390 protein [2]; 0.0976562 uM): 127 and 143
Polarization (hHgs 1-390 protein [2]; 0.390625 uM): 133 and 129
Polarization (hHgs 1-390 protein [2]; 1.5625 uM): 103 and 111
Polarization (hHgs 1-390 protein [2]; 6.25 uM): 88 and 79
Polarization (hHgs 1-390 protein [2]; 25 uM): 61
Polarization (hHgs 1-390 protein [2]; 100 uM): 51 and 48
IC50 (hHgs 1-390 protein [3]): 3.41 µM

C[C@H]1CCC/C=C/[C@@H]2C[C@H](O)C[C@H]2[C@H](O)/C=C/C(=O)O1 [BFA, Brefeldin A]
Colocalization of M protein with ERGIC53 (M protein; 5h BFA washout): 0.876 and 0.833 and 0.817
Colocalization of M protein with SEC61B (M protein; 5h BFA washout): 0.423 and 0.481 and 0.508
ERGIC53 (colocalization value, Figure S5B) (M protein; 5h BFA washout): 0.399 and 0.424 and 0.407
SEC61B (colocalization value, Figure S5B) (M protein; 5h BFA washout): 0.895 and 0.946 and 0.906
Colocalization of M protein with ERGIC53 (M protein; BFA treatment): 0.305 and 0.466 and 0.315
Colocalization of M protein with SEC61B (M protein; BFA treatment): 0.951 and 0.905 and 0.916
ERGIC53 (colocalization value, Figure S5B) (M protein; BFA treatment): 0.418 and 0.389 and 0.288
SEC61B (colocalization value, Figure S5B) (M protein; BFA treatment): 0.951 and 0.926 and 0.886
ER export of M protein (M protein; WT 17Cl-1 cells, 5 µg/mL BFA, 40 min): effectively blocked

CC(C)C(=O)OC[C@H]1O[C@@H](n2ccc(NO)nc2=O)[C@H](O)[C@@H]1O [Molnupiravir]
Survival curves: per-mouse event code (SARS-CoV-2 Omicron BA.5; mouse, in vivo): 0
body weight relative to start (Figure 5N) (SARS-CoV-2 Omicron BA.5; mouse, in vivo): 100
pathological severity scores, lung tissues (SARS-CoV-2 Omicron BA.5; mouse, in vivo): 2 and 1
body weight relative to start (Figure 5N) (SARS-CoV-2 Omicron BA.5; time 3): 98.8156 and 99.095 and 100.646 and 100.079 and 100.862 and 100.376 and 98.4711 and 101.287
body weight relative to start (Figure 5N) (SARS-CoV-2 Omicron BA.5; time 5): 100.79 and 100.302 and 100.727 and 102.248 and 100.911 and 101.609 and 100.096 and 100.919
body weight relative to start (Figure 5N) (SARS-CoV-2 Omicron BA.5; time 8): 102.338 and 103.472 and 103.062 and 103.016 and 101.448 and 100.239 and 100.322
body weight relative to start (Figure 5N) (SARS-CoV-2 Omicron BA.5; time 10): 102.338 and 103.472 and 103.062 and 103.016 and 101.448 and 100.239 and 100.322
Inhibition, combination matrix (Figure S12C) (MHV [4]; Molnupiravir 0.01 uM): -6.464
Inhibition, combination matrix (Figure S12C) (MHV [4]; Molnupiravir 0.03 uM): -1.441
Inhibition, combination matrix (Figure S12C) (MHV [4]; Molnupiravir 0.1 uM): -1.4813
Inhibition, combination matrix (Figure S12C) (MHV [4]; Molnupiravir 0.3 uM): 3.455
Inhibition, combination matrix (Figure S12C) (MHV [4]; Molnupiravir 1 uM): 0.7848
Inhibition, combination matrix (Figure S12C) (MHV [4]; Molnupiravir 3 uM): 9.711
Inhibition, combination matrix (Figure S12C) (MHV [4]; Molnupiravir 10 uM): 41.7804
Inhibition, combination matrix (Figure S12C) (MHV [4]; Molnupiravir 25 uM): 66.457

CC(C)(C)[C@H](NC(=O)C(F)(F)F)C(=O)N1C[C@H]2[C@@H]([C@H]1C(=O)N[C@H](C#N)C[C@@H]1CCNC1=O)C2(C)C [nirmatrelvir]
Inhibition, combination matrix (Figure S12D) (MHV [4]; nirmatrelvir 0.01 uM): -1.274
Inhibition, combination matrix (Figure S12D) (MHV [4]; nirmatrelvir 0.03 uM): 3.148
Inhibition, combination matrix (Figure S12D) (MHV [4]; nirmatrelvir 0.1 uM): 7.328
Inhibition, combination matrix (Figure S12D) (MHV [4]; nirmatrelvir 0.3 uM): 49.1912
Inhibition, combination matrix (Figure S12D) (MHV [4]; nirmatrelvir 1 uM): 73.8207
Inhibition, combination matrix (Figure S12D) (MHV [4]; nirmatrelvir 3 uM): 76.6195
Inhibition, combination matrix (Figure S12D) (MHV [4]; nirmatrelvir 10 uM): 79.1661
Inhibition, combination matrix (Figure S12D) (MHV [4]; nirmatrelvir 25 uM): 76.9584

GAIRLHGRLIVAGIVLESEQPPRRRQRRKKRG (also: D-retroinverso) [M161-DRI, M161 modified with d-retroinverso (DRI) isoform]
readout per mouse, Figure S8P (quantity not given) (MHV [5]): 70 and 160 and 190 and 40 and 290 and 100
score per mouse, Figure S8Q (MHV [5]): 1 and 0
lung injury (histology) (MHV [5]; mouse, iv, 15 mg/kg): alleviated
viral gRNA in the lung (MHV [5]; mouse, iv, 15 mg/kg): significantly decreased
virus titer in the lung (plaque assay) (MHV [5]; mouse, iv, 15 mg/kg): significantly decreased

GRKKRRQRRRPPQDYKDDDDK [FLAG]
cell viability, Figure S7E (17Cl-1 cells; peptide concentration 1000): 98.8246 and 101.437
cell viability, Figure S7E (17Cl-1 cells; peptide concentration 4000): 100.566 and 104.919
cell viability, Figure S7E (17Cl-1 cells; peptide concentration 8000): 94.9064
cell viability, Figure S7E (17Cl-1 cells; peptide concentration 10000): 94.471 and 89.2468
cell viability, Figure S7E (17Cl-1 cells; peptide concentration 20000): 89.6822
cell viability, Figure S7E (17Cl-1 cells; peptide concentration 40000): 87.0701 and 87.9408
cell viability, Figure S7E (17Cl-1 cells; peptide concentration 60000): 91.4236 and 94.9064
cell viability, Figure S7E (17Cl-1 cells; peptide concentration 80000): 90.9882 and 92.2943
cell viability, Figure S7E (17Cl-1 cells; peptide concentration 100000): 101.001 and 93.6003
cell viability, Figure S7E (17Cl-1 cells; peptide concentration 200000): 85.764
cell viability, Figure S7F (Vero E6 cells; peptide concentration 1000): 96.8531 and 94.4056
cell viability, Figure S7F (Vero E6 cells; peptide concentration 2000): 104.196 and 103.846
cell viability, Figure S7F (Vero E6 cells; peptide concentration 4000): 104.895
cell viability, Figure S7F (Vero E6 cells; peptide concentration 6000): 106.643 and 105.594
cell viability, Figure S7F (Vero E6 cells; peptide concentration 8000): 101.049 and 100.35
cell viability, Figure S7F (Vero E6 cells; peptide concentration 10000): 105.594
cell viability, Figure S7F (Vero E6 cells; peptide concentration 50000): 101.049 and 103.497
cell viability, Figure S7F (Vero E6 cells; peptide concentration 400000): 94.0559 and 93.7063
cell viability, Figure S7F (Vero E6 cells; peptide concentration 800000): 102.448
cell viability, Figure S7G (Calu-3 cells; peptide concentration 1000): 98.6281 and 97.5158
cell viability, Figure S7G (Calu-3 cells; peptide concentration 5000): 94.1787 and 96.4034
cell viability, Figure S7G (Calu-3 cells; peptide concentration 10000): 96.4034 and 97.8865
cell viability, Figure S7G (Calu-3 cells; peptide concentration 20000): 94.9203 and 96.4034
cell viability, Figure S7G (Calu-3 cells; peptide concentration 40000): 95.6618 and 97.5158
cell viability, Figure S7G (Calu-3 cells; peptide concentration 60000): 97.5158 and 96.0326
cell viability, Figure S7G (Calu-3 cells; peptide concentration 80000): 96.4034
cell viability, Figure S7G (Calu-3 cells; peptide concentration 100000): 97.8865
cell viability, Figure S7G (Calu-3 cells; peptide concentration 400000): 98.6281 and 97.5158
cell viability, Figure S7G (Calu-3 cells; peptide concentration 800000): 99.7405 and 96.0326
viability at 24 h (in vitro [6]; peptide concentration 1000): 99.7%
viability at 24 h (in vitro [6]; peptide concentration 4000): 102%
viability at 24 h (in vitro [6]; peptide concentration 8000): 98%
viability at 24 h (in vitro [6]; peptide concentration 10000): 97.5%
viability at 24 h (in vitro [6]; peptide concentration 20000): 94%
viability at 24 h (in vitro [6]; peptide concentration 40000): 78.8%
viability at 24 h (in vitro [6]; peptide concentration 60000): 98.4%
viability at 24 h (in vitro [6]; peptide concentration 80000): 84.5%
viability at 24 h (in vitro [6]; peptide concentration 100000): 88.8%
viability at 24 h (in vitro [6]; peptide concentration 200000): 84.9%
viability at 24 h (in vitro [7]; peptide concentration 1000): 94.8%
viability at 24 h (in vitro [7]; peptide concentration 2000): 101%
viability at 24 h (in vitro [7]; peptide concentration 4000): 102%
viability at 24 h (in vitro [7]; peptide concentration 6000): 106%
viability at 24 h (in vitro [7]; peptide concentration 8000): 102%
viability at 24 h (in vitro [7]; peptide concentration 10000): 105%
viability at 24 h (in vitro [7]; peptide concentration 50000): 102%
viability at 24 h (in vitro [7]; peptide concentration 100000): 105%
viability at 24 h (in vitro [7]; peptide concentration 400000): 95.8%
viability at 24 h (in vitro [7]; peptide concentration 800000): 101%
viability at 24 h (in vitro [8]; peptide concentration 1000): 92%
viability at 24 h (in vitro [8]; peptide concentration 5000): 88.6%
viability at 24 h (in vitro [8]; peptide concentration 10000): 92%
viability at 24 h (in vitro [8]; peptide concentration 20000): 89%
viability at 24 h (in vitro [8]; peptide concentration 40000): 93.4%
viability at 24 h (in vitro [8]; peptide concentration 60000): 90.5%
viability at 24 h (in vitro [8]; peptide concentration 80000): 94.5%
viability at 24 h (in vitro [8]; peptide concentration 100000): 94.2%
viability at 24 h (in vitro [8]; peptide concentration 400000): 100%
viability at 24 h (in vitro [8]; peptide concentration 800000): 96.8%

Reference: PMC12948427 (The Journal of Clinical Investigation, 2025)
